Reference: PMC6749524, “Identification of New Antifungal Agents Targeting Chitin Synthesis by a Chemical-Genetic Method” (Molecules, 2019)
Read-outs that look alike come from different tables or passages of the source.

What was measured:
[1] = tested on: chs3∆ (chs3::KanMX in BY4741); test: MIC in compound library screening assay, chs3∆ yeast; assay type: cell-based, S. cerevisiae; details: for MIC: Saccharomyces cerevisiae, 24 h
Experimental: (§1) The compound library is a combination of synthetic compounds from Enamine (Kyiv, Ukraine) and Life Chemicals Inc. (Burlington, ON, Canada) and natural products from the Institute of Medicinal Biotechnology. We used WT, chs3∆, and fks1∆ yeast strains to screen new antifungal agents. The screening assays were performed in 96-well plates in a final volume of 200 μL. Fresh yeast cells (OD600 = 0.8) were diluted to 10^5 CFU/mL in YPD medium. We added 198 μL of diluted culture and 2 μL of compounds into each well, and the final concentration of compounds was 100 μg/mL with 1% DMSO. The yeast cells were incubated at 30 °C for 24 hours to assess the growth. For the compounds that inhibited the growth of all three yeast strains, they were serially diluted to determine the minimal inhibit concentration (MIC) with the same method. MIC endpoints were defined as the lowest concentration of drugs that cause a 90% decrease in growth compared to the drug-free control (MIC90).

C. albicans ATCC10231 = test: Checkerboard assay, synergy with caspofungin; assay type: cell-based; details: Candida albicans
Experimental: (§2) Fresh cell cultures of WT S. cerevisiae and C. albicans ATCC10231 (OD600 = 0.8) were diluted to 10^4 CFU/mL in YPD medium. The in vitro synergistic and antagonistic effects of compounds were determined using checkerboard assay. MIC endpoints were defined as the lowest concentration of drugs, causing 80% decrease in viability compared to the drug-free control (MIC80). The calculation and interpretation of the fractional inhibitory concentration index (FICI) were carried out by referring to the document standards. FICI = (MIC of drug A in combination) / (MIC of drug A alone) + (MIC of drug B in combination) / (MIC of drug B alone). FIC ≤0.5 was considered as a synergistic effect, and >2 was considered as antagonism.

WT S. cerevisiae = test: Checkerboard assay, synergy with caspofungin; assay type: cell-based; details: for MIC: Saccharomyces cerevisiae, read-out: MIC Alone
Experimental: as §2

[2] = tested on: fks1∆ (fks1::KanMX in BY4741); test: MIC in compound library screening assay, fks1∆ yeast; assay type: cell-based, S. cerevisiae; details: for MIC: Saccharomyces cerevisiae, 24 h, read-out: MIC, fks1∆
Experimental: as §1

[3] = tested on: WT S. cerevisiae strain BY4741; test: MIC in compound library screening assay, WT yeast; assay type: cell-based; details: for MIC: Saccharomyces cerevisiae
Experimental: as §1

budding yeast = test: MIC of CFW in the presence of compounds, checkerboard assay; assay type: cell-based, S. cerevisiae; details: budding yeast, CFW alone
Experimental: as §2

C. albicans = test: as above; assay type: cell-based, Candida albicans
Experimental: as §2

SMILES | MIC ([1]; read-out: MIC, chs3∆) | MIC (C. albicans ATCC10231; ATCC10231, compound alone, MIC80, read-out: MIC Alone) | MIC (WT S. cerevisiae; S. cerevisiae, compound alone, MIC80) | MIC [2] | MIC ([3]; WT BY4741, YPD, 30 °C, 24 hours, MIC90, read-out: MIC, WT) | MIC of CFW (budding yeast) | MIC of CFW (C. albicans; C. albicans, absence of chitin synthesis inhibitor) | MIC ([1]; read-out: MIC, chs3∆, chs3∆ mutant, YPD, 30 °C, 24 hours, MIC90) | MIC, chs3∆ ([1]; chs3∆ mutant, YPD, 30 °C, 24 hours, MIC90) | MIC (C. albicans ATCC10231; ATCC10231, read-out: MIC Alone) | MIC of Caspofungin Combination (C. albicans ATCC10231; MIC of caspofungin in combination with the named compound, MIC80) | MIC Combination (C. albicans ATCC10231; MIC of the compound in combination with caspofungin, MIC80) | MIC of Caspofungin Combination (WT S. cerevisiae; S. cerevisiae, MIC of caspofungin in combination with the named compound, MIC80) | MIC Combination (WT S. cerevisiae; S. cerevisiae, MIC of the compound in combination with caspofungin, MIC80) | FICI (WT S. cerevisiae; S. cerevisiae, fractional inhibitory concentration index with caspofungin, ≤0.5 synergistic) | MIC (WT S. cerevisiae) | MIC, fks1∆ ([2]; fks1∆ mutant, YPD, 30 °C, 24 hours, MIC90) | MIC (C. albicans; Candida albicans, read-out: MIC of CFW in the presence of nikkomycin Z) | MIC ([3]; 24 h, read-out: MIC, WT, WT BY4741, YPD, 30 °C, 24 hours, MIC90) | MIC, WT ([3]; WT BY4741, YPD, 30 °C, 24 hours, MIC90)
CC[C@H](C)C[C@H](C)CCCCCCCCC(=O)N[C@H]1C[C@@H](O)[C@@H](NCCN)NC(=O)[C@@H]2[C@@H](O)CCN2C(=O)[C@H]([C@H](O)CCN)NC(=O)[C@H]([C@H](O)[C@@H](O)c2ccc(O)cc2)NC(=O)[C@@H]2C[C@@H](O)CN2C(=O)[C@H]([C@@H](C)O)NC1=O [Caspofungin, caspofungin] | 3.75 ng/mL | 0.025 µg/mL | 0.03 µg/mL | 0.015 µg/mL | 0.03 µg/mL |  |  |  |  |  |  |  |  |  |  |  |  |  |  | 
O=S(=O)([O-])c1cc(Nc2nc(Nc3ccccc3)nc(N(CCO)CCO)n2)ccc1/C=C/c1ccc(Nc2nc(Nc3ccccc3)nc(N(CCO)CCO)n2)cc1S(=O)(=O)[O-].[Na+].[Na+] [CFW, Calcofluor White M2R, reference compound] |  |  |  |  |  | 6.25 µg/mL | 12.5 µg/mL |  |  |  |  |  |  |  |  |  |  |  |  | 
C[C@@H]([C@H](N)C(=O)N[C@H](C(=O)O)[C@H]1O[C@@H](n2ccc(=O)[nH]c2=O)[C@H](O)[C@@H]1O)[C@H](O)c1ccc(O)cn1 [Nikkomycin, nikkomycin Z, reference compound] |  |  |  | 25 µg/mL |  |  |  | ≥ 200000 ng/mL | > 200 µg/mL | 12.5 µg/mL | 6.25 ng/mL | 3.125 µg/mL | 7.5 ng/mL | 12.5 µg/mL | <0.5 | > 100 µg/mL | 25 µg/mL | 100 µg/mL | ≥ 200 µg/mL | > 200 µg/mL
